Key:
Assay type in all cases: cell-based
[1] = system: S. aureus UBMS 88-5 (tetM); experiment: MIC, agar dilution; conditions: S. aureus UBMS 88-5 TetM; Table IA; unit assumed
[2] = system: S. aureus UBMS 88-4 (Sensitive); experiment: MIC, agar dilution; conditions: S. aureus UBMS 88-4; Table IA; unit assumed
[3] = system: S. aureus UBMS 90-1 (tetM); experiment: MIC, agar dilution; conditions: S. aureus UBMS 90-1 TetM; Table IA; unit assumed
[4] = system: S. aureus UBMS 90-2 (tetM); experiment: MIC, agar dilution; conditions: S. aureus UBMS 90-2 TetM; Table IA; unit assumed
[5] = system: S. aureus UBMS 90-3 (Sensitive); experiment: MIC, agar dilution; conditions: S. aureus UBMS 90-3; Table IA; unit assumed
[6] = system: S. aureus UBMS 88-7 (tetK); experiment: MIC, agar dilution; conditions: S. aureus UBMS 88-7 TetK; Table IA; unit assumed
[7] = system: S. aureus IVES 2943 (meth. resistant); experiment: MIC, agar dilution; conditions: S. aureus IVES 2943; Table IA; unit assumed
[8] = system: S. aureus IVES 1983 (meth. resistant); experiment: MIC, agar dilution; conditions: S. aureus IVES 1983; Table IA; unit assumed
[9] = system: S. aureus ATCC 29213 (Sensitive); experiment: MIC, agar dilution; conditions: S. aureus ATCC 29213; Table IA; unit assumed
[10] = system: S. aureus Smith (Sensitive); experiment: MIC, agar dilution; conditions: S. aureus SMITH (MP); Table IA; unit assumed
[11] = system: S. haemolyticus AVAH 88-3; experiment: MIC, agar dilution; conditions: S. hemolyticus AVHAH 88-3; Table IA; unit assumed
E. faecalis 12201 = experiment: MIC, agar dilution; conditions: Enterococcus 12201; Table IA; unit assumed
E. faecalis ATCC 29212 = experiment: MIC, agar dilution; conditions: E. faecalis ATCC 29212; Table IA; unit assumed
E. coli UBMS 88-1 (tetB) = experiment: MIC, agar dilution; conditions: E. coli UBMS 88-1 TetB; Table IA; unit assumed
E. coli UBMS 89-1 (tetM) = experiment: MIC, agar dilution; conditions: E. coli UBMS 89-1 TetM; Table IA; unit assumed
[12] = system: E. coli UBMS 89-2 (Sensitive); experiment: MIC, agar dilution; conditions: E. coli UBMS 89-2 Tet Sens.; Table IA; unit assumed
E. coli ATCC 25922 = experiment: MIC, agar dilution; conditions: E. coli ATCC 25922; Table IA; unit assumed
E. coli UBMS 90-4 (tetM) = experiment: MIC, agar dilution; conditions: E. coli UBMS 90-4 TetM; Table IA; unit assumed
E. coli J3272 Tet sens. = experiment: MIC, agar dilution (Table IA); conditions: unit assumed
E. coli MC4100 TetB = experiment: MIC, agar dilution (Table IA); conditions: unit assumed
E. coli PRP1 TetA = experiment: MIC, agar dilution (Table IA); conditions: unit assumed
E. coli J3272 TetC = experiment: MIC, agar dilution (Table IA); conditions: unit assumed
E. coli J2175 = experiment: MIC, agar dilution (Table IA); conditions: unit assumed
E. coli BAJ9003 = experiment: MIC, agar dilution (Table IA); conditions: unit assumed
E. coli UBMS 90-5 = experiment: MIC, agar dilution (Table IA); conditions: unit assumed
E. coli #311 (MP) = experiment: MIC, agar dilution (Table IA); conditions: unit assumed
E. coli J3272 TetD = experiment: MIC, agar dilution (Table IA); conditions: unit assumed
S. mariescens FDOR 8733 = experiment: MIC, agar dilution (Table IA); conditions: unit assumed
[13] = system: X. maltophilia NEMC 87210; experiment: MIC, agar dilution (Table IA); conditions: unit assumed
[14] = system: Ps. acruginosa ATCC 27853; experiment: MIC, agar dilution (Table IA); conditions: unit assumed
S. aureus NEMC 8769/89-4 = experiment: MIC, agar dilution (Table IA); conditions: unit assumed
S. aureus ROSE (MP) = experiment: MIC, agar dilution (Table IA); conditions: unit assumed

SMILES | Antibacterial activity (MIC) [1] [µg/mL] | Antibacterial activity (MIC) [2] [µg/mL] | Antibacterial activity (MIC) [3] [µg/mL] | Antibacterial activity (MIC) [4] [µg/mL] | Antibacterial activity (MIC) [5] [µg/mL] | Antibacterial activity (MIC) [6] [µg/mL] | Antibacterial activity (MIC) [7] [µg/mL] | Antibacterial activity (MIC) [8] [µg/mL] | Antibacterial activity (MIC) [9] [µg/mL] | Antibacterial activity (MIC) [10] [µg/mL] | Antibacterial activity (MIC) [11] [µg/mL] | Antibacterial activity (MIC) (E. faecalis 12201) [µg/mL] | Antibacterial activity (MIC) (E. faecalis ATCC 29212) [µg/mL] | Antibacterial activity (MIC) (E. coli UBMS 88-1 (tetB)) [µg/mL] | Antibacterial activity (MIC) (E. coli UBMS 89-1 (tetM)) [µg/mL] | Antibacterial activity (MIC) [12] [µg/mL] | Antibacterial activity (MIC) (E. coli ATCC 25922) [µg/mL] | Antibacterial activity (MIC) (E. coli J3272 Tet sens.) [µg/mL] | Antibacterial activity (MIC) (E. coli MC4100 TetB) [µg/mL] | Antibacterial activity (MIC) (E. coli PRP1 TetA) [µg/mL] | other results
CN(C)c1cc(NC(=O)CNC2CCC2)c(O)c2c1CC1CC3C(N(C)C)C(O)=C(C(N)=O)C(=O)C3(O)C(O)=C1C2=O (stereo not drawn) [MMM, [4S-(4alpha,12aalpha)]-g-[[(Cyclobutylamino)acetyl]amino]-4,7-Bis(dimethylamino)-1,4,4a,5,5a,6,11,12a-octahydro-3,10,12,12a-tetrahydroxy-1,11-dioxo-2-naphthacenecarboxamide] | 0.25 | 0.25 | 0.5 | 0.25 | 0.12 | 4 | 4 | 4 | 0.25 | 0.25 | 0.24 | 0.24 | 0.25 | 0.5 | 0.25 | 0.5 | 0.25 | 0.06 | 0.25 | 4 | Antibacterial activity (MIC) (E. coli UBMS 90-4 (tetM)): 0.25 µg/mL; Antibacterial activity (MIC) (E. coli J3272 TetC): 0.5 µg/mL; Antibacterial activity (MIC) (E. coli J2175): 0.25 µg/mL; Antibacterial activity (MIC) (E. coli BAJ9003): 0.03 µg/mL; Antibacterial activity (MIC) (E. coli UBMS 90-5): 0.5 µg/mL; Antibacterial activity (MIC) (E. coli #311 (MP)): 0.25 µg/mL; Antibacterial activity (MIC) (E. coli J3272 TetD): 0.12 µg/mL; Antibacterial activity (MIC) (S. mariescens FDOR 8733): 8 µg/mL; Antibacterial activity (MIC) [13]: 0.5 µg/mL; Antibacterial activity (MIC) [14]: 32 µg/mL; Antibacterial activity (MIC) (S. aureus NEMC 8769/89-4): 0.5 µg/mL; Antibacterial activity (MIC) (S. aureus ROSE (MP)): 8 µg/mL
CN(C)c1cc(NC(=O)CN2CCOCC2)c(O)c2c1CC1CC3[C@H](N(C)C)C(O)=C(C(N)=O)C(=O)[C@@]3(O)C(O)=C1C2=O.Cl.Cl (stereo partly drawn) [NN, [7S-(7alpha,10aalpha)]-N-[9-(Aminocarbonyl)-4,7-bis(dimethylamino)-5,5a,6,6a,7,10,10a,12-octahydro-1,8,10a,11-tetrahydroxy-10,12-dioxo-2-naphthacenyl)-4-morpholineacetamide dihydrochloride] | 4 | 2 | 4 | 2 | 2 | 32 | > 32 | > 32 | 2 | 2 | 32 | 2 | 2 | > 32 | 32 | > 32 | > 32 | > 32 | > 32 | > 32 | Antibacterial activity (MIC) (E. coli J3272 TetC): > 32 µg/mL; Antibacterial activity (MIC) (E. coli J2175): > 32 µg/mL; Antibacterial activity (MIC) (E. coli BAJ9003): 0.5 µg/mL; Antibacterial activity (MIC) (E. coli UBMS 90-5): > 32 µg/mL; Antibacterial activity (MIC) (E. coli #311 (MP)): > 32 µg/mL; Antibacterial activity (MIC) (E. coli J3272 TetD): 32 µg/mL; Antibacterial activity (MIC) (S. mariescens FDOR 8733): > 32 µg/mL; Antibacterial activity (MIC) [13]: 32 µg/mL; Antibacterial activity (MIC) [14]: > 32 µg/mL; Antibacterial activity (MIC) (S. aureus NEMC 8769/89-4): 0.5 µg/mL; Antibacterial activity (MIC) (S. aureus ROSE (MP)): > 32 µg/mL
CN(C)c1cc(NC(=O)CN2CCCCC2)c(O)c2c1CC1CC3C(N(C)C)C(O)=C(C(N)=O)C(=O)C3(O)C(O)=C1C2=O.Cl.Cl (stereo not drawn) [UU, [7S-(7alpha,10aalpha)]-N-[9-(Aminocarbonyl)-4,7-bis(dimethylamino)-5,5a,6,6a,7,10,10a,12-octahydro-1,8,10a,11-tetrahydroxy-10,12-dioxo-2-naphthacenyl)-1-piperidineacetamide dihydrochloride] | 0.25 | 0.25 | 0.25 | 0.12 | 0.12 | 0.25 | 0.25 | 0.5 | 0.12 | 0.12 | 0.12 | 0.12 | 0.06 | 0.5 | 0.12 | 0.5 | 0.25 | 0.5 | 0.5 | 1 | Antibacterial activity (MIC) (E. coli UBMS 90-4 (tetM)): 0.5 µg/mL; Antibacterial activity (MIC) (E. coli J3272 TetC): 0.5 µg/mL; Antibacterial activity (MIC) (E. coli J2175): 0.5 µg/mL; Antibacterial activity (MIC) (E. coli BAJ9003): 0.06 µg/mL; Antibacterial activity (MIC) (E. coli UBMS 90-5): 0.5 µg/mL; Antibacterial activity (MIC) (E. coli #311 (MP)): 0.25 µg/mL; Antibacterial activity (MIC) (E. coli J3272 TetD): 0.25 µg/mL; Antibacterial activity (MIC) (S. mariescens FDOR 8733): 4 µg/mL; Antibacterial activity (MIC) [13]: 0.12 µg/mL; Antibacterial activity (MIC) [14]: 32 µg/mL; Antibacterial activity (MIC) (S. aureus NEMC 8769/89-4): 0.06 µg/mL; Antibacterial activity (MIC) (S. aureus ROSE (MP)): 0.5 µg/mL
CN(C)c1cc(NC(=O)CBr)c(O)c2c1CC1CC3[C@H](N(C)C)C(O)=C(C(N)=O)C(=O)[C@@]3(O)C(O)=C1C2=O.Cl.Cl (stereo partly drawn) [III, [4S-(4alpha,12aalpha)]-9-[(Bromoacetyl)amino)-4,7-bis(dimethylamino)-1,4,4a,5,5a,6,11,12a-octahydro-3,10,12,12a-tetrahydroxy-1,11-dioxo-2-naphthacenecarboxamide dihydrochloride] | 1 | 0.5 | 1 | 0.5 | 0.5 | 2 | 4 | 4 | 0.5 | 0.5 | 2 | 1 | 0.5 | > 32 | 4 | 32 | 16 | 16 | > 32 | > 32 | Antibacterial activity (MIC) (E. coli J3272 TetC): > 32 µg/mL; Antibacterial activity (MIC) (E. coli J2175): 32 µg/mL; Antibacterial activity (MIC) (E. coli BAJ9003): 0.25 µg/mL; Antibacterial activity (MIC) (E. coli UBMS 90-5): 16 µg/mL; Antibacterial activity (MIC) (E. coli #311 (MP)): 8 µg/mL; Antibacterial activity (MIC) (E. coli J3272 TetD): 32 µg/mL; Antibacterial activity (MIC) (S. mariescens FDOR 8733): > 32 µg/mL; Antibacterial activity (MIC) [13]: 4 µg/mL; Antibacterial activity (MIC) [14]: > 32 µg/mL; Antibacterial activity (MIC) (S. aureus NEMC 8769/89-4): 0.12 µg/mL; Antibacterial activity (MIC) (S. aureus ROSE (MP)): 8 µg/mL

Source: patent publication USRE40086E1, “Method for treating bacterial infection with novel 7-substituted-9-substituted amino 6-demethyl-6-deoxytetracyclines” (Wyeth Holdings Corporation, priority 1991, dated 2008)
